Measurements reported in patent publication US20020052409A1, “Compounds and methods for treating mitochondria-associated diseases” (priority 1998, published 2002).

Tests used:
[1] = system: human cytoplasmic hybrid (“cybrid”) cells; assay: Assay for mitochondrial permeability transition using DASPMI (ionomycin-induced fluorescence decay); type: cell-based; settings: DASPMI-loaded cybrid cells, ionomycin induced membrane potential collapse
Text: B. Assay for Mitochondrial Permeability Transition (MPT) Using 2-,4-Dimethvlaminostyryl-N-Methvlpyridinium (DASPMI).
According to this assay, one may determine the ability of a mitochondria protecting agent of the invention to inhibit the loss of mitochondrial membrane potential that accompanies mitochondrial dysfunction. […] This loss of membrane potential or mitochondrial permeability transition (MPT) can be quantitatively measured using the mitochondria-selective fluorescent probe 2-,4-dimethylaminostyryl-N-methylpyridinium (DASPMI).
Upon introduction into cell cultures, DASPMI accumulates in mitochondria in a manner that is dependent on, and proportional to, mitochondrial membrane potential. If mitochondrial function is disrupted in such a manner as to compromise membrane potential, the fluorescent indicator compound leaks out of the membrane bounded organelle with a concomitant loss of detectable fluorescence. Fluorimetric measurement of the rate of decay of mitochondria associated DASPMI fluorescence provides a quantitative measure of loss of membrane potential, or MPT.
Culture supernatants are then removed and various concentrations of candidate mitochondria protecting agents diluted into HBSS from DMF stocks, or vehicle controls, are added at various concentrations. Mitochondria protecting agents are introduced to cells either before, or at the same time as, introduction of the cells to ionomycin (described below).
Fluorescence of each microculture in the 96-well plate is quantified immediately using a Molecular Devices fmax™ fluorimetric plate reader (Molecular Devices Corp., Sunnyvale, Calif.; excitation wavelength=485 nm; emission wavelength=590 nm) and to fluorescence is recorded. Thereafter, induction of mitochondrial membrane potential collapse is initiated by the addition of ionomycin (Calbiochem, San Diego, Calif.). Ionomycin stock solutions of various concentrations from 0.1-40 μM are prepared in warm Hank's balanced salt solution (HBSS) and diluted for addition to cells to achieve a final concentration of 0.05-20 μM, with final concentrations of 4-10 μM being preferred. Fluorescence decay of DASPMI-loaded, ionomycin induced cells is monitored as a function of time from 0-500 seconds following addition of ionomycin. The maximum negative slope (V-max) is calculated from a subset of the data using analysis software provided by the fluorimetric plate reader manufacturer. In addition, the initial and final signal intensities are determined and the effects of candidate mitochondria protecting agents on the rate of signal decay are quantified.

[2] = system: cybrid cells (MixCon, 1685 cells); assay: Ionomycin induced apoptosis in cybrid cells: cytochrome c release (ProteinChip/SELDI); type: cell-based, human; settings: 100 μM at the same time ionomycin (10 μM) was introduced; FIGURE
Text: In another aspect of the apoptosis assays, quantification of the mitochondrial protein cytochrome c that has leaked out of mitochondria in apoptotic cells may provide an apoptosis indicator that can be readily determined (Liu et al., Cell 86:147-157, 1996). Such quantification of cytochrome c may be performed spectrophotometrically, immunochemically or by other well established methods for detecting the presence of a specific protein. Release of cytochrome c from mitochondria in cells challenged with apoptotic stimuli (e.g., ionomycin, a well known calcium ionophore) can be followed by a variety of immunological methods. Matrix-assisted laser desorption ionization time of flight mass (MALDI-TOF) spectrometry coupled with affinity capture is particularly suitable for such analysis since apo-cytochrome c and holo cytochrome c can be distinguished on the basis of their unique molecular weights. […] The molecular weight of the protein is determined by its time of flight to the detector of the SELDI mass spectrometer. […]
Cytochrome c antibody was covalently bound to solid support chips containing a pre-activated surface (ProteinChip, Ciphergen, Palo Alto, Calif.). […] After removal of the Tris-saline buffer, the chip was rinsed with 1× PBS and was ready for capture of the antigen. […]

[3] = system: 1685 cells; assay: Thapsigargin induced apoptosis (cell death, propidium iodide); type: cell-based, human; settings: for % Non-Viable Cells with Thapsigargin and with Cmpd. / cytotoxicity at 100 µM: thapsigargin 1 μM plus agent 100 μM, 24 hours; for Δ Cell Viability: [% Non-Viable Cells (with Thapsigargin, without Cmpd)] − [% Non-Viable Cells (with Thapsigargin, with Cmpd)], agent 100 μM; for cytotoxicity at 100 µM: Homo sapiens, read-out: % Non-Viable Cells with Thapsigargin and with Cmpd.
Protocol: In another aspect of the apoptosis assays, the ratio of living to dead cells, or the proportion of dead cells, in a population of cells exposed to an apoptogen is determined as a measure of the ultimate consequence of apoptosis. Living cells can be distinguished from dead cells using any of a number of techniques known to those skilled in the art.
In order to determine the effect of compounds of this invention on the final endpoint of apoptosis (cell death), the following assays were carried out. […] Cells were plated (3×10^4 cells per well) on 96-well plates 48 hours prior to thapsigargin treatment. Thapsigargin (Calbiochem, La Jolla, Calif.) alone (final concentration, 1 μM), thapsigargin (1 μM) plus agent final concentration, 100 μM), agent alone (100 μM) in growth media, or growth media devoid of both thapsigargin and agent, were added to cells in four separate wells.
Twenty-four hours after thapsigargin +/− agent treatment, propidium iodide (Sigma Chemical Co., St. Louis, Mo.) was added to each well at a final concentration of 10 μg/ml per well. […] The resulting fluorescence values correspond to cells in the monolayer of a well that are non-viable.
(§1) Next, the media was aspirated, and the monolayer was fixed (killed) by adding 100 μl of 100% ethanol to each well followed by incubation at ambient temperature for 10 minutes. The fluorescense in each well was then read again. The fluorescence values resulting from the second reading correspond to the total number of cells (whether viable or non-viable at the time of the initial fluorescence reading) present in the monolayer of a well.

[4] = system: 1685 cells; assay: Cytotoxic effects of compounds, no thapsigargin (propidium iodide); type: cell-based, human
Protocol: In order to determine the effect of compounds of this invention on the final endpoint of apoptosis (cell death), the following assays were carried out. The cells used were 1685 cells, “1685” being the designation of a cybrid cell line derived from SH-SY5Y and containing mitochondria from a patient having Alzheimer's disease (see U.S. Pat. No. 5,888,498, issued Mar. 30, 1999, hereby incorporated by reference). Cells were plated (3×10^4 cells per well) on 96-well plates 48 hours prior to thapsigargin treatment. Thapsigargin (Calbiochem, La Jolla, Calif.) alone (final concentration, 1 μM), thapsigargin (1 μM) plus agent final concentration, 100 μM), agent alone (100 μM) in growth media, or growth media devoid of both thapsigargin and agent, were added to cells in four separate wells.
Twenty-four hours after thapsigargin +/− agent treatment, propidium iodide (Sigma Chemical Co., St. Louis, Mo.) was added to each well at a final concentration of 10 μg/ml per well. The cells were incubated at ambient temperature for 10 minutes, after which the fluorescence (excitation max=536 nm, 544 nm used for excitation; emission max=617, readings at 612 nm) was determined for each individual well in a fmax™ fluorescence microplate reader (Molecular Devices, Sunnyvale, Calif.). The resulting fluorescence values correspond to cells in the monolayer of a well that are non-viable.
as §1
The results, presented in Table 4 below, are expressed as the percentage of non-viable cells as a proportion of the […] cells (fixed controls).
The ΔCell Viability values resulting from treating cells with agents in this class in the absence of thapsigargin (Table 4, infra) closely parallel the ΔCell Viability values that result when cells are treated with the respective agent and thapsigargin ([…]).

[5] = system: SH-SY5Y neuroblastoma cells; assay: Ionomycin-induced apoptosis in neuroblastoma cells (membrane blebbing, light microscopy); type: cell-based, human; settings: 2 mM, simultaneously with 10 μM ionomycin; 6h incubation; ionomycin alone approximately 80%, untreated <5%
Protocol: SH-SY5Y neuroblastoma cells (1×10^5 cells) were rinsed with one volume 1X PBS, and then treated with 10 μM ionomycin (Calbiochem, San Diego, Cass.) in DMEM supplemented with 10% fetal calf serum (FCS) (Gibco, Life Technologies, Grand Island, N.Y.) for 10 minutes, followed by two washes with DMEM (10% FCS). After 6h incubation at 37° C. in DMEM (10% FCS), cells were visualized by light microscopy (20X magnification). […] When cells were simultaneously treated with ionomycin and 2 mM creatine, the proportion of cells undergoing apoptosis as evidenced by membrane blebbing was reduced to approximately 10%.

SMILES	% Non-Viable Cells with Thapsigargin and with Cmpd. [3] [%]	Δ Cell Viability [3] [%]	further results
N=C(N)Nc1ccc(C(=O)O)cc1 [4-Guanidinobenzoic Acid]	–	–	IC50 [1]: 1 mM
N=C(N)NC(=N)Nc1ccccc1 [(1 1)]	–	–	cytochrome c release [2]: attenuation of cytochrome release
COc1cc(NC(=N)N)cc(OC)c1OC [(3)]	46.7	–	–
COc1cc(C(=O)O)ccc1NC(=N)N [(12)]	37.5	1.8	–
COc1cc(NC(=N)N)c(Cl)cc1C(=O)O [(13)]	52.8	–	Δ Cell Viability [4]: −22.2%
N=C(N)Nc1cc(C(F)(F)F)cc(C(F)(F)F)c1 [(14)]	47.9	–	–
N=C(N)Nc1cc(F)cc(F)c1 [(15)]	42.2	–	–
CCCCCCOc1ccc(NC(=N)N)cc1 [(16)]	121.2	–	Δ Cell Viability [4]: −106.7%
N=C(N)Nc1ccc(F)cc1 [(17)]	56.9	–	Δ Cell Viability [4]: −23.6%
N=C(N)Nc1ccccc1CO [(19)]	44.3	–	–
N=C(N)Nc1ccc(O)c(C(=O)O)c1 [(23)]	49.8	0.6	–
N=C(N)Nc1ccc(N2CCOCC2)cc1 [(27)]	42.5	7.9	–
N=C(N)NCCc1ccc(O)c(O)c1 [(28)]	52.3	–	–
N=C(N)NC(=N)Nc1ccc(C(=O)O)cc1 [(34)]	42.4	2.9	–
CC(C)(C)c1cc(CNNC(=N)N)cc(C(C)(C)C)c1O [Compound (1)]	–	3.2	ΔCell Viability ([3]; (+thapsigargin, −compound)—(+thapsigargin, +compound), approximate values): about 3.5; cytotoxicity at 100 µM [3]: 38.3%
CN(Cc1cc(C(C)(C)C)c(O)c(C(C)(C)C)c1)NC(=N)N [Compound (4)]	–	2.1	IC50 [1]: 0.01 mM; cytotoxicity at 100 µM [3]: 43.8%
CCCCCCCCc1ccc(O)c(NC(=N)N)c1 [Compound (6)]	–	–	cytotoxicity at 100 µM [3]: 122%; Δ Cell Viability ([4]; no thapsigargin, [% Non-Viable Cells (without Cmpd)] − [% Non-Viable Cells (with Cmpd)]): −109.0%; % Non-Viable Cells with Cmpd. ([4]; no thapsigargin, agent alone 100 μM, 24 hours): 125.2%
CCCCCCCCc1ccc(NC(=N)N)cc1 [Compound (31)]	100.0	–	Δ Cell Viability [4]: −83.5%
CN(CC(=O)O)C(=N)N [Creatine]	–	–	IC50 [1]: 2 mM; proportion of cells undergoing apoptosis as evidenced by membrane blebbing [5]: approximately 10%
NC1=NCCN1CC(=O)O [Cyclocreatine]	–	–	IC50 [1]: 3 mM
